As usually defined, the Ki is the equilibrium dissociation constant of an inhibitor or competing ligand from its target. A higher Ki goes with weaker binding. What is called melting point is the temperature of the solid-liquid transition.

This is an account of results in patent publication US6787541B1, “Thieno-and furopyrimidine derivatives as A2A-receptor antagonists” (Vernalis Research Limited, priority 1999, dated 2004).

The test system of series [1] is haloperidol-induced deficits in locomotor activity in mice. Description: Haloperidol-induced hypolocomotion model. It counts as in vivo. To be noted: intraperitoneally at a dose of 10 mg/kg. The text has this: Haloperidol-induced Hypolocomotion Model
This approach is also considered a valid method for screening drugs with potential antiparkinsonian effects. Thus, the ability of novel adenosine antagonists to block haloperidol-induced deficits in locomotor activity in mice can be used to assess both in vivo and potential antiparkinsonian efficacy.
Female TO mice (25-30 g) obtained from TUCK, UK, are used for all experiments. Animals are housed in groups of 8 [cage size—40 (width)×40 (length)×20 (height)cm] under 12 hr light/dark cycle (lights on 08:00 hr), in a temperature (20±2° C.) and humidity (55±15%) controlled environment. Animals have free access to food and water, and are allowed at least 7 days to acclimatize after delivery before experimental use.
Liquid injectable haloperidol (1 ml Serenance ampoules from Baker Norton, Harlow, Essex, each containing haloperidol BP 5 mg, batch # P424) are diluted to a final concentration of 0.02 mg/ml using saline. Test compounds are typically prepared as aqueous suspensions in 8% Tween. […]
1.5 hours before testing, mice are administered 0.2 mg/kg haloperidol, a dose that reduces baseline locomotor activity by at least 50%. […] Horizontal locomotor activity is determined by placing the cages within a frame containing a 3×6 array of photocells linked to a computer, which tabulates beam breaks. […]

In series [2] the test system is cataleptic responses. The conditions noted are these: cited from earlier work.
The subject of series [3] is Parkinsonian patients. To be noted: cited from earlier work.
The target in series [4] is T1, human adenosine A2A receptors expressed in HEK-293 cells (Homo sapiens, UniProt P29274).
T1 construct: expressed in transfected cells; host or cells: HEK-293 cells
Description: Binding affinities at hA2A receptors, displacement of [3H]-CGS 21680. Background: Loss of bound radioactivity is the signal in a displacement assay; it reports binding, not function.

T1 sequence (P29274 whole entry): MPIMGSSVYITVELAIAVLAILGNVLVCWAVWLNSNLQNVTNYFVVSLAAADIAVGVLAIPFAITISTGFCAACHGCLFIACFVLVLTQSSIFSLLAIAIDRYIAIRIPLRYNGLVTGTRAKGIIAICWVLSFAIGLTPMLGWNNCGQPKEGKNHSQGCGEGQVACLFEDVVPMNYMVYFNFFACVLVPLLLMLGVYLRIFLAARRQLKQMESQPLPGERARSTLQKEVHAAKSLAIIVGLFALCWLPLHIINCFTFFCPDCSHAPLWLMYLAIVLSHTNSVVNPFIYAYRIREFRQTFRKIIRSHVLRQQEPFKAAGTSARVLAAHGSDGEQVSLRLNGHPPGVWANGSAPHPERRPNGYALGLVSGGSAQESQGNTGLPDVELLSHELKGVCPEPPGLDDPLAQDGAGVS

Take `O=C(c1cccs1)c1nc(N2CCC(O)CC2)nc2ccsc12` [Example 86, 2-(4-Hydroxypiperidin-1-yl)thieno[3,2-d]pyrimidin-4-yl 2-thienylmethanone]: in series [1], the “reversal of haloperidol-induced hypolocomotion” value is listed as “significantly reversed”.

`CCCn1c(=O)c2c(nc(/C=C/c3ccc(OC)c(OC)c3)n2C)n(CCC)c1=O` [KF 17837, (E)-8-(3,4-dimethoxystyryl)-1,3-dipropyl-7-methylxanthine]: in series [2] (in vivo), the “anticataleptic effects of a subthreshold dose of L-DOPA plus benserazide” value is reported as “potentiated”; the “catalepsy induced by haloperidol and reserpine” value was “reduced”. In addition, in series [2] (oral administration), the “cataleptic responses induced by intracerebroventricular administration of CGS 21680” value is on record as “significantly ameliorated”.

With `Cn1c(=O)c2[nH]cnc2n(C)c1=O` [theophylline, 1,3-dimethylxanthine], in series [3] (15 Parkinsonian patients, up to 12 weeks, 150 mg/day oral), the “mean objective disability scores” value was “significant improvements”. Also, the “patients reporting moderate or marked subjective improvement” value in series [3] (of 15 Parkinsonian patients, up to 12 weeks, 150 mg/day oral) is listed as 11. Besides, the serum theophylline levels in series [3] (slow release oral theophylline preparation 150 mg/day, after one week) is recorded as 4.44 mg/L.

As to `O=C(c1cccs1)c1nc(NCc2ccccn2)nc2ccsc12` [Example 95, 2-(2-Pyridylmethylamino)thieno[3,2-d]pyrimidin-4-yl 2-thienylmethanone], the melting point was 178.6 to 179.3 °C. Further, the Ki in series [4] was found to be 8 nM.

For `CSc1nc(C(=O)c2cccs2)c2sccc2n1` [Example 48, 2-Methylthiothieno[3,2-d]pyrimidin-4-yl 2-thienylmethanone], the melting point was in the range of 189.7 to 190.6 °C. For the same compound, the Ki in series [4] came to 151 nM.

As for `O=C(c1ccc(Br)s1)c1nc(C(F)(F)F)nc2ccsc12` [Example 46, 5-Bromo-2-thienyl 2-trifluoromethylthieno[3,2-d]pyrimidin-4-ylmethanone], the melting point lay in the range of 180 to 182 °C. The Ki in series [4] was found to be 101 nM.
